Among the data in patent US20250064789A1, “KETOAMIDE DERIVATIVES AND PHARMACEUTICAL USES THEREOF” (priority 2022, published 2025) are IC50 values, retold here.

One assay deals with recombinant SARS-CoV-2 M^pro (Severe acute respiratory syndrome coronavirus 2 (2019-nCoV) (SARS-CoV-2), UniProt P0DTD1). Put plainly: Inhibition of SARS-CoV-2 M^pro enzyme activity (fluorescent substrate assay). Type of assay: biochemical. As to conditions: inhibition of SARS-CoV-2 M^pro enzyme activity; values given in μM; read-out: IC50.
Regarding `O=C(NCc1ccccn1)C(=O)[C@@H](Cc1ccccc1)NC(=O)[C@@H]1C[C@@H]2CCC[C@@H]2N1C(=O)C1CCC(F)(F)CC1` [Compound 263], the half-inhibitory concentration (IC50) – broadly, the point on the concentration scale where inhibition reaches its midpoint – worked out at 1.56 ± 0.05 µM.
As for `O=C(NCc1ccccn1)C(=O)[C@@H](Cc1ccccc1)NC(=O)[C@@H]1C[C@@H]2CCCC[C@@H]2N1C(=O)C1CCC(F)(F)CC1` [Compound 264], the IC50 is above 2.5 µM.
The same measure, in the same setting: the same measure for `O=C(NCc1ccccn1)C(=O)[C@@H](Cc1ccccc1)NC(=O)[C@@H]1[C@H]2CC[C@H](C2)N1C(=O)C1CCC(F)(F)CC1` [Compound 270]: above 2.5 µM; for `O=C(NCc1ccccn1)C(=O)[C@@H](Cc1ccccc1)NC(=O)[C@@H]1CC2(CC2)CN1C(=O)C1CCC(F)(F)CC1` [Compound 272]: above 2.5 µM.

The assay is the same for the next values; noted with them: inhibition of SARS-CoV-2 M^pro enzyme activity; values in nM; read-out: IC50.
Turning to `NC(=O)C[C@@H](NC(=O)c1ccc(F)cc1)C(=O)N[C@H](Cc1ccccc1)C(=O)C(=O)NCc1ccccn1` [Compound 254], the IC50 worked out at 0.0455 ± 0.0031 µM.
With `CC(C)(C)OC(=O)NCC(C)(C)C(=O)N[C@H](Cc1ccccc1)C(=O)C(=O)NCc1ccccn1` [Compound 255], the half-maximal inhibitory concentration (IC50) was found to be 0.111 ± 0.0041 µM.
Still for that read-out and setting: as for `O=C(NCc1ccccn1)C(=O)[C@@H](Cc1ccccc1)NC(=O)C1[C@H]2CCC[C@H]2CN1C(=O)c1cc2cc(Cl)ccc2o1` (stereo partly shown) [Compound 256], the figure is 0.0205 ± 0.0017 µM; as for `O=C(NCc1ccccn1)C(=O)[C@@H](Cc1ccccc1)NC(=O)[C@@H]1[C@H]2CCC[C@H]2CN1C(=O)COc1ccc(Cl)c(Cl)c1` [Compound 257], 0.0718 ± 0.0001 µM.
On to `O=C(NCc1ccccn1)C(=O)[C@@H](Cc1ccccc1)NC(=O)[C@@H]1[C@H]2CCC[C@H]2CN1C(=O)NC1CCCCC1` [Compound 258], for which the IC50 was 0.0932 ± 0.0006 µM.
Still for that read-out and setting: the same measure for `O=C(NCc1ccccn1)C(=O)[C@@H](Cc1ccccc1)NC(=O)[C@@H]1[C@H]2CCC[C@H]2CN1C(=O)CC1CCC(F)(F)CC1` [Compound 259]: 0.0214 ± 0.0035 µM; for `O=C(NCc1ccccn1)C(=O)[C@@H](Cc1ccccc1)NC(=O)[C@@H]1[C@H]2CCC[C@H]2CN1C(=O)c1cnccn1` [Compound 260]: 0.742 ± 0.0063 µM.
In the case of `O=C(NCc1ccccn1)C(=O)[C@@H](Cc1ccccc1)NC(=O)[C@@H]1[C@H]2CCC[C@H]2CN1C(=O)[C@@H](NC(=O)c1cnccn1)C1CCCCC1` [Compound 261], the IC50 is 0.8636 ± 0.0001 µM.
The same measure, in the same setting: as for `CC1(C)[C@@H]2[C@@H](C(=O)N[C@H](Cc3ccccc3)C(=O)C(=O)NCc3ccccn3)N(C(=O)C3CCC(F)(F)CC3)C[C@@H]21` [Compound 262], the figure is 0.9337 ± 0.005 µM; as for `O=C(NCc1ccccn1)C(=O)[C@@H](Cc1ccccc1)NC(=O)[C@H]1C[C@@H]2CCCC[C@@H]2N1C(=O)C1CCC(F)(F)CC1` [Compound 265], 0.0156 ± 0.0001 µM; as for `O=C(NCc1ccccn1)C(=O)[C@@H](Cc1ccccc1)NC(=O)C1c2ccccc2CN1C(=O)C1CCC(F)(F)CC1` (stereo partly shown) [Compound 266], 0.0344 ± 0.0023 µM.
Same read-out and setting: as for `O=C(NCc1ccccn1)C(=O)[C@@H](Cc1ccccc1)NC(=O)[C@H]1Cc2ccccc2CN1C(=O)C1CCC(F)(F)CC1` [Compound 267], the figure is 0.0112 ± 0.0003 µM; as for `O=C(NCc1ccccn1)C(=O)[C@@H](Cc1ccccc1)NC(=O)[C@@H]1C[C@H]2C[C@H]2N1C(=O)C1CCC(F)(F)CC1` [Compound 268], 0.296 ± 0.0038 µM.
As to `O=C(NCc1ccccn1)C(=O)[C@@H](Cc1ccccc1)NC(=O)[C@H]1C[C@H]2C[C@H]2N1C(=O)C1CCC(F)(F)CC1` [Compound 269], the half-inhibitory concentration (IC50) is 0.0196 ± 0.0004 µM.
Regarding `O=C(NCc1ccccn1)C(=O)[C@@H](Cc1ccccc1)NC(=O)[C@H]1Cc2ccccc2CN1C(=O)[C@@H](NC(=O)c1cnccn1)C1CCCCC1` [Compound 271], the IC50 came to 0.0115 ± 0.0001 µM.
On the same count and under the same terms, as for `O=C(NCc1ccccn1)C(=O)[C@@H](Cc1ccccc1)NC(=O)[C@H]1C[C@@H]2C[C@@H]2N1C(=O)CC1CCC(F)(F)CC1` [Compound 273], the figure is 0.017 ± 0.0001 µM; as for `O=C(NCc1ccccn1)C(=O)[C@@H](Cc1ccccc1)NC(=O)C12CC(CN1C(=O)C1CCC(F)(F)CC1)C2` [Compound 274], 0.9108 ± 0.0065 µM; as for `O=C(NCc1ccccn1)C(=O)[C@@H](Cc1ccccc1)NC(=O)[C@H]1CC(F)(F)CN1C(=O)CC1CCC(F)(F)CC1` [Compound 276], 0.013 ± 0.0008 µM.
Still for that read-out and setting: the same measure for `O=C(NCc1ccccn1)C(=O)[C@@H](Cc1ccccc1)NC(=O)[C@H]1CC(F)(F)CN1C(=O)C1(F)CCCCC1` [Compound 277]: 0.0307 ± 0.0006 µM; for `O=C(NCc1ccccn1)C(=O)[C@@H](Cc1ccccc1)NC(=O)[C@H]1CC(F)CN1C(=O)C1CCC(F)(F)CC1` (stereo partly shown) [Compound 278]: 0.0337 ± 0.0005 µM.
Same read-out and setting: the same measure for `O=C(NCc1ccccn1)C(=O)[C@@H](Cc1ccccc1)NC(=O)C1CCN(Cc2ccccc2)C1` (stereo partly shown) [Compound 279]: 0.272 ± 0.0062 µM; for `O=C(NCc1ccccn1)C(=O)[C@@H](Cc1ccccc1)NC(=O)[C@@H]1CCCN1C(=O)[C@@H](NC(=O)c1cnccn1)C1CCCCC1` [Compound 280]: 0.0132 ± 0.0012 µM.
Consider `O=C(NCc1ccccn1)C(=O)[C@@H](Cc1ccccc1)NC(=O)[C@H]1CCCCN1C(=O)[C@H]1CC[C@@H](C(F)(F)F)CC1` [Compound 281], for which the IC50 worked out at 0.0148 ± 0.0001 µM.
Take `O=C(NCc1ccccn1)C(=O)[C@@H](Cc1ccccc1)NC(=O)[C@H]1CCCCN1C(=O)C1CCC(F)(F)CC1` [Compound 282]: the concentration for half-maximal inhibition (IC50) was 0.0134 ± 0.0004 µM.
On the same count and under the same terms, as for `O=C(NCc1ccccn1)C(=O)[C@@H](Cc1ccccc1)NC(=O)[C@H]1CCCCN1C(=O)CC1CCC(F)(F)CC1` [Compound 283], the figure is 0.0146 µM; as for `O=C(NCc1ccccn1)C(=O)[C@@H](Cc1ccccc1)NC(=O)[C@H]1CCCCN1C(=O)[C@H](NC(=O)c1cnccn1)C1CCCCC1` [Compound 284], 0.0144 ± 0.0002 µM.
On to `O=C(NCc1ccccn1)C(=O)[C@@H](Cc1ccccc1)NC(=O)[C@H]1CCCCN1C(=O)CCC1CCC(F)(F)CC1` [Compound 285], for which the IC50 amounted to 0.0171 ± 0.0002 µM.
Same read-out and setting: the same measure for `O=C(NCc1ccccn1)C(=O)[C@@H](Cc1ccccc1)NC(=O)[C@H]1CCCCN1C(=O)[C@@H]1C[C@@H]2[C@H](C1)C2(F)F` [Compound 286]: 0.0163 ± 0.0015 µM; for `O=C(NCc1ccccn1)C(=O)[C@@H](Cc1ccccc1)NC(=O)[C@H]1COCCN1C(=O)[C@H]1CC[C@@H](C(F)(F)F)CC1` [Compound 287]: 0.0241 µM; for `O=C(NCc1ccccn1)C(=O)[C@@H](Cc1ccccc1)NC(=O)[C@H]1COCCN1C(=O)CCC1CCC(F)(F)CC1` [Compound 291]: 0.0131 ± 0.0028 µM.
The same measure, in the same setting: the same measure for `O=C(NCc1ccccn1)C(=O)[C@@H](Cc1ccccc1)NC(=O)[C@@H]1COCCN1C(=O)CC1CCC(F)(F)CC1` [Compound 292]: 0.0114 ± 0.0002 µM.
Same read-out and setting: as for `O=C(NCc1ccccn1)C(=O)[C@@H](Cc1ccccc1)NC(=O)[C@H]1COCCN1C(=O)[C@@H]1C[C@@H]2[C@H](C1)C2(F)F` [Compound 293], the figure is 0.0164 ± 0.0011 µM; as for `O=C(NCc1ccccn1)C(=O)[C@@H](Cc1ccccc1)NC(=O)[C@H]1COCCN1C(=O)C1(F)CCCCC1` [Compound 294], 0.0145 ± 0.0002 µM.
Take `C[C@@H](NC(=O)NC1CCC(F)(F)CC1)C(=O)N[C@H](Cc1ccccc1)C(=O)C(=O)NCc1ccccn1` [Compound 295]: the IC50 is 0.0122 µM.
The same measure, in the same setting: as for `C[C@@H](NC(=O)N1CCC(C(F)(F)F)CC1)C(=O)N[C@H](Cc1ccccc1)C(=O)C(=O)NCc1ccccn1` [Compound 297], the figure is 0.0181 ± 0.0003 µM; as for `C[C@@H](NC(=O)N1CC2(C1)CC(F)(F)C2)C(=O)N[C@H](Cc1ccccc1)C(=O)C(=O)NCc1ccccn1` [Compound 298], 0.0149 ± 0.0001 µM.
